# Experimental data from patent US7897781B2, “Cold menthol receptor-1 antagonists” (Janssen Pharmaceutica NV, priority 2006, dated 2011).
# Several values for one entry are separate records, joined by “and”; a condition that tells them apart may be missing. Identical values can stand only once.
# Key:
# Sprague-Dawley rats = assay: CFA-induced paw radiant heat hypersensitivity; type: in vivo, rat; settings: 30 mg/kg p.o.
# Experimental: Intraplantar injection of Complete Freund's Adjuvant (CFA) in rodents results in a long-lasting inflammatory reaction, characterized by a pronounced hypersensitivity to both thermal and mechanical stimuli. This hypersensitivity peaks between 24-72 hours following injection and can last for several weeks. […] This paradigm also may be conducted with a multiple dosing or a prophylactic dosing regime designed to alter the course of hyperalgesia development. This test predicts the analgesic, anti-allodynic and antihyperalgesic effect of numerous effective clinical agents, including NSAIDS such as acetaminophen, aspirin and ibuprofen, and opioids such as morphine.
# Each rat was placed in a test chamber on a warm glass surface and allowed to acclimate for approximately 10 minutes. A radiant thermal stimulus (beam of light) was then focused through the glass onto the plantar surface of each hind paw in turn. The thermal stimulus was automatically shut off by a photoelectric relay when the paw was moved or when the cut-off time was reached (20 seconds for radiant heat at ˜5 Amps). An initial (baseline) response latency to the thermal stimulus was recorded for each animal prior to the injection of CFA. Twenty-four hours following intraplantar CFA injection, the response latency of the animal to the thermal stimulus was then re-evaluated and compared to the animal's baseline response time. […] Immediately following the post-CFA latency assessment, test compound or vehicle (usually Solutol, hydroxypropyl methylcellulose, hydroxypropyl beta-cyclodextrin or PEG-400) was administered i.p. or p.o. to rats. […] The percent reversal (% R) of hypersenstivitiy was calculated according to the following formula: % Reversal=(Treatment Response−CFA Response)/(Baseline Response−CFA Response)×100.
# canine TRPM8 = target: T1, canine TRPM8 (Canis lupus familiaris, UniProt Q1A7N1); assay: In vitro canine TRPM8 functional assay (Ca2+-sensitive dye, icilin activation; Table 4 TRPM8 Screening); type: cell-based; settings: HEK293 cells expressing canine TRPM8, icilin activation; for % I (1 μM): compound at 1 μM; for % I (5 μM): compound at 5 μM
# T1 construct: expressed in transfected cells
# Experimental: The functional activity of compounds of Formula (I) was determined by measuring changes in intracellular calcium concentration using a Ca^2+-sensitive fluorescent dye. The changes in fluorescent signal were monitored by a fluorescence plate reader, either a FLIPR™ (Molecular Devices) or FDSS (Hamamatsu).
# HEK293 cells stably expressing canine TRPM8 were routinely grown as monolayers in Dulbecco's minimum essential medium supplemented with 10% FBS, 1 mM L-glutamine, 100 units/mL penicillin, 100 ug/mL streptomycin and 400 μg/mL G418. Cells were maintained in 5% CO2 at 37° C. At 24 hrs prior to assay, cells were seeded in clear-base poly-D-lysine coated 384-well plates (BD Biosciences, NJ, USA) at a density of 5,000 cells per well in culture medium and grown overnight in 5% CO2 at 37° C. On assay day, growth media was removed and cells were loaded with Calcium 3 Dye (Molecular Devices) for 35 min at 37° C., under 5% CO2 and then for 25 min at room temperature and atmosphere. Subsequently, cells were tested for agonist-induced increases in intracellular Ca^2+ levels using FLIPR™ or FDSS. Cells were challenged with a compound of Formula (I) (at varying concentrations) and intracellular Ca^2+ was measured for 5 min prior to the addition of icilin to all wells to achieve a final concentration which produces approximately an 80% maximal response.
# Basal FI was subtracted prior to normalizing data to percent of maximal response. Curves were generated using the average of quadruplicate wells for each data point, were analyzed using nonlinear regression of either sigmoidal dose response or sigmoidal dose response (variable slope). Finally, the EC50 and IC50 values were calculated with the best-fit dose curve determined by GraphPad Prism.
# T1 sequence (Q1A7N1 1-1104): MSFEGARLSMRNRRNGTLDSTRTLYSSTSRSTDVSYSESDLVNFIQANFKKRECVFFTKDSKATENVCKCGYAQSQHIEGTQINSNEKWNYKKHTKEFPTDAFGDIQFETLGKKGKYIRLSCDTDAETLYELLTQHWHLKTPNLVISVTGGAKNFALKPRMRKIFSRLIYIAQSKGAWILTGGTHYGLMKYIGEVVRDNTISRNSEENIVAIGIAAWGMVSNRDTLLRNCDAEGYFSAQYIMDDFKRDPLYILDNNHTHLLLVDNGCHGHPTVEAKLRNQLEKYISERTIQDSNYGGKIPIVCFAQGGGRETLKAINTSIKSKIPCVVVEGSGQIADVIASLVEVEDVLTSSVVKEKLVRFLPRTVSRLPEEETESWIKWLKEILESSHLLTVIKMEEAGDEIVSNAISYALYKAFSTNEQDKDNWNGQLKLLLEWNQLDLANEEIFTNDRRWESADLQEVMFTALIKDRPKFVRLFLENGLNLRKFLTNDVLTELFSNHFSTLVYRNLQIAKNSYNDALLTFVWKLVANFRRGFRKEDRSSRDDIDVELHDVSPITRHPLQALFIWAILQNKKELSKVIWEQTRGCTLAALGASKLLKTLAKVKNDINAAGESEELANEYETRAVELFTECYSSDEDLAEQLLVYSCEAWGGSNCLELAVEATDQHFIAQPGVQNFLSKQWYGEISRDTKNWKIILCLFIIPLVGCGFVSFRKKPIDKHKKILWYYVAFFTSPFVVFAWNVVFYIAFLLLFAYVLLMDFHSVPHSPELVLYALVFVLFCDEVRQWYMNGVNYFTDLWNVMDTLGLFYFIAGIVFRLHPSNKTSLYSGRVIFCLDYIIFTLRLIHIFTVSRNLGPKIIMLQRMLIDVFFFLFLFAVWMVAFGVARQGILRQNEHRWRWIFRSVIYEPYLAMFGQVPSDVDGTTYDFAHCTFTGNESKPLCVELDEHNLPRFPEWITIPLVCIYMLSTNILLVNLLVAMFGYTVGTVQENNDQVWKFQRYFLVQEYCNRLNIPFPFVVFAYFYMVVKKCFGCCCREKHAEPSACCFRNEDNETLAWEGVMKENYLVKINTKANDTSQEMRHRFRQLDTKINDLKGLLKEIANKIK
Compound,% I (1 μM) (canine TRPM8),% I (0.5 μM) (canine TRPM8; compound at 0.5 μM),other results
CCOP(=O)(OCC)C(Cc1ccc(F)c(Cl)c1)c1sc2ccccc2c1Br (racemic) [Cpd 244],–,–,% Reversal (Sprague-Dawley rats; time 2 h): 45%
CC(C)OP(=O)(OC(C)C)C(Cc1ccc(Cl)c(F)c1)c1sc2ccccc2c1Br (centres unmarked) [Cpd 190],–,–,% Reversal (Sprague-Dawley rats; time 1 h): 45%
CC(C)OP(=O)(OC(C)C)C(Cc1cc(C(F)(F)F)ccc1F)c1sc2ccccc2c1Br (centres unmarked) [Cpd 335],–,–,% Reversal (Sprague-Dawley rats; time 1 h): 0%
CCOP(=O)(OCC)C(Cc1ccc2ccccc2c1)c1sc2ccccc2c1C (centres unmarked) [Cpd 46],99%,–,–
CCOP(=O)(OCC)C(Cc1cccc(Cl)c1F)c1sc2ccccc2c1C (centres unmarked) [Cpd 23],100%,–,–
CC(C)OP(=O)(OC(C)C)C(Cc1cc(C(F)(F)F)cc(Cl)c1F)c1cc2ccccc2s1 (centres unmarked) [Cpd 126],100%,–,–
CCOP(=O)(OCC)C(Cc1ccc(F)c(F)c1)c1oc2cccc(F)c2c1Br (racemic) [Cpd 206],100%,–,–
CCOP(=O)(OCC)C(Cc1cc(F)c(Cl)cc1Cl)c1sc2ccccc2c1C (centres unmarked) [Cpd 76],100%,–,–
CCOP(=O)(OCC)C(Cc1ccccc1Cl)c1cc2ccccc2s1 (centres unmarked) [Cpd 85],90%,–,% I (5 μM) (canine TRPM8): 100%
CCOP(=O)(OCC)C(Cc1cccc(Cl)c1Cl)c1cc2ccccc2s1 (centres unmarked) [Cpd 100],82%,–,–
"CCOP(=O)(OCC)C(Cc1ccc(F)c(F)c1)C1=C(C)c2ccccc2S1(=O)=O (centres unmarked) [Cpd 88, [2-(3,4-Difluoro-phenyl)-1-(3-methyl-1,1-dioxo-1H-1λ^6-benzo-[b]thiophen-2-yl)-ethyl]-phosphonic acid diethyl ester]",89%,–,–
CCOP(=O)(OCC)C(Cc1ccc2ccccc2c1)c1cc2ccccc2s1 (centres unmarked) [Cpd 83],84%,–,–
CC(=O)OCCOP(=O)(OCCOC(C)=O)C(Cc1ccc(F)c(F)c1)c1sc2ccccc2c1Br (racemic) [Cpd 213],–,100%,–
CCOP(=O)(OCC)C(Cc1cc(C(F)(F)F)ccc1Cl)c1sc2ccccc2c1Cl (centres unmarked) [Cpd 274],–,95%,–
CCOP(=O)(OCC)C(Cc1ccc(F)c(F)c1)c1sc2c(C(F)(F)F)cccc2c1C (centres unmarked) [Cpd 116],64%,–,–
CC(C)OP(=O)(OC(C)C)C(Cc1ccc(F)c(F)c1)c1sc2ccccc2c1C(C)C (centres unmarked) [Cpd 19],100%,–,–
CCOP(=O)(OCC)C(Cc1cc(OC)c(Cl)cc1F)c1sc2ccccc2c1Br (racemic) [Cpd 164],–,94%,–
"CC(C)OP(=O)(OC(C)C)[C@H](Cc1ccc(F)c(C(F)(F)F)c1)c1sc2ccccc2c1Br [Cpd 243, (R)-[1-(3-Bromo-benzo[b]thiophen-2-yl)-2-(4-fluoro-3-trifluoromethylphenyl)-ethyl]-phosphonic acid diisopropyl ester]",–,64%,–
CCOP(=O)(OCC)C(Cc1c(Cl)cccc1Cl)c1sc2ccccc2c1C (centres unmarked) [Cpd 54],100%,–,–
CC(C)OP(=O)(OC(C)C)C(Cc1ccc(F)cc1)c1sc2cc(Br)ccc2c1Br (centres unmarked) [Cpd 200],81%,–,–
CCOP(=O)(OCC)C(Cc1c(F)c(F)c(O)c(F)c1F)c1sc2ccccc2c1Br (racemic) [Cpd 228],–,94%,–
"CC(C)OP(=O)(OC(C)C)C(Cc1ccc(F)c(F)c1)c1sc2ccccc2c1Br (centres unmarked) [Cpd 15, [1-(3-Bromo-benzo[b]thiophen-2-yl)-2-(3,4-difluoro-phenyl)ethyl]-phosphonic acid diisopropyl ester]",100% and 103%,–,–
CCOP(=O)(OCC)C(Cc1ccc(C(F)(F)F)c(F)c1)c1cc2ccccc2s1 (centres unmarked) [Cpd 58],100%,–,–
CC(C)OP(=O)(OC(C)C)C(Cc1cccc(C(F)(F)F)c1Cl)c1sc2ccccc2c1Cl (centres unmarked) [Cpd 177],–,96%,–
CC(C)OP(=O)(OC(C)C)C(Cc1ccc(F)c(F)c1)c1sc2ncccc2c1Br (racemic) [Cpd 207],–,99%,–
CCOP(=O)(OCC)C(Cc1cc2c(cc1Cl)OCO2)c1sc2ccccc2c1C (centres unmarked) [Cpd 71],98%,–,–
CC(C)OP(=O)(OC(C)C)C(Cc1ccc(F)c(F)c1)c1sc2ccccc2c1C1CCCC1 (centres unmarked) [Cpd 38],99%,–,–

Compound,% I (1 μM) (canine TRPM8),% I (0.5 μM) (canine TRPM8; compound at 0.5 μM),other results
CCOP(=O)(Cc1cc2ccccc2s1)OCc1ccc(F)cc1 (centres unmarked) [Cpd 107],–,–,% I (5 μM) (canine TRPM8): 99%
CCOP(=O)(OCC)C(Cc1cccc(OC(F)(F)F)c1)c1sc2ccccc2c1Br (racemic) [Cpd 145],–,"103, %",–
(R)-[1-(3-Bromo-benzo[b]thiophen-2-yl)-2-(4-fluoro-phenyl)-ethyl]-phosphonic acid diisopropyl ester [Cpd 240],–,98% and 77%,–
CCOP(=O)(OCC)C(Cc1ccc(O)cc1)c1sc2ccccc2c1Br (centres unmarked) [Cpd 324],–,54%,–
CC(C)OP(=O)(OC(C)C)C(Cc1cccc(O)c1F)c1sc2ccccc2c1Br (racemic) [Cpd 230],–,97%,–
"CC(C)OP(=O)(OC(C)C)C(Cc1ccc(F)c(C(F)(F)F)c1)c1c(Br)c2ccccc2n1S(C)(=O)=O (centres unmarked) [Cpd 330, [1-(3-Bromo-1-methanesulfonyl-1H-indol-2-yl)-2-(4-fluoro-3-trifluoromethyl-phenyl)-ethyl]-phosphonic acid diisopropyl ester]",–,–,"inhibition at 0.5 µM (canine TRPM8; compound at 0.5 μM, read-out: % I (0.5 μM)): 103%"
CCOP(=O)(OCC)C(Cc1cc(O)c(Cl)cc1F)c1sc2ccccc2c1Br (racemic) [Cpd 231],–,98%,–
CCOP(=O)(OCC)C(Cc1ccccc1C)c1cc2ccccc2s1 (centres unmarked) [Cpd 89],91%,–,% I (5 μM) (canine TRPM8): 100%
CCOP(=O)(OCC)C(Cc1ccccc1C(F)(F)F)c1sc2ccccc2c1Cl (racemic) [Cpd 279],–,97%,–
CC(C)OP(=O)(OC(C)C)C(Cc1ccccc1F)c1sc2ccccc2c1Br (centres unmarked) [Cpd 196],100%,–,–
CCOP(=O)(OCC)C(Cc1c(F)c(F)c(OC)c(F)c1F)c1sc2ccccc2c1Br (racemic) [Cpd 160],–,87%,–
CCOP(=O)(OCC)C(Cc1cccc(OC(F)(F)F)c1)c1sc2ccccc2c1C (centres unmarked) [Cpd 57],100%,–,–
"CCOP(=O)(CC(C)C)C(Cc1ccc(F)c(F)c1)c1sc2ccccc2c1C (centres unmarked) [Cpd 36, [2-(3,4-Difluoro-phenyl)-1-(3-methyl-benzo[b]thiophene-2-yl)-ethyl]-isobutyl-phosphonic acid ethyl ester]",100%,–,–
CCOP(=O)(OCC)C(Cc1cc(C(F)(F)F)cc(C(F)(F)F)c1)c1cc2ccccc2s1 (centres unmarked) [Cpd 96],92%,–,–
CCOP(=O)(OCC)C(Cc1ccc(OC)c(C(F)(F)F)c1)c1sc2ccccc2c1Br (racemic) [Cpd 152],–,92%,–
CCOP(=O)(OCC)C(Cc1ccc(Br)cc1)c1cc2ccccc2s1 (centres unmarked) [Cpd 70],82%,–,% I (5 μM) (canine TRPM8): 99%
CCOP(=O)(OCC)C(Cc1cccc(C(F)(F)F)c1)c1cc2ccccc2s1 (centres unmarked) [Cpd 39],100%,–,–
CCOP(=O)(OCC)C(Cc1ccc(OC)c(C(F)(F)F)c1)c1sc2ccccc2c1Cl (racemic) [Cpd 292],–,99%,–
CCOP(=O)(Cc1cc2ccccc2s1)OCc1ccccc1 (centres unmarked) [Cpd 111],14%,–,–
CCOP(=O)(OCC)C(Cc1ccc(F)cc1Cl)c1sc2ccccc2c1C (centres unmarked) [Cpd 27],99%,–,–
"Cc1c(C(Cc2ccc(F)c(F)c2)P(=O)(OC(C)C)OC(C)C)sc2ncccc12 (centres unmarked) [Cpd 34, [2-(3,4-Difluoro-phenyl)-1-(3-methyl-thieno[2,3-b]pyridin-2-yl)-ethyl]-phosphonic acid diisopropyl ester]","101, 101%",–,–
CCOP(=O)(OCC)C(Cc1ccc(O)c(C(F)(F)F)c1)c1sc2ccccc2c1Br (centres unmarked) [Cpd 233],–,70%,–
CCOP(=O)(OCC)C(Cc1cc(C(F)(F)F)ccc1Cl)c1sc2ccccc2c1C (centres unmarked) [Cpd 99],100%,–,–
CCOP(=O)(OCC)C(Cc1ccc(F)cc1Cl)c1cc2ccccc2s1 (centres unmarked) [Cpd 98],79%,–,–
CCOP(=O)(OCC)C(Cc1ccccc1Cl)c1sc2ccccc2c1C (centres unmarked) [Cpd 48],100%,–,–
CCOP(=O)(OCC)C(Cc1ccc(C(F)(F)F)cc1)c1cc2ccccc2s1 (centres unmarked) [Cpd 68],96%,–,–
